Source: the supplement of paper PMC10702517
± gives the standard deviation.

Experiments:
[1] = chemical recovery from spiked human plasma; higher = better extraction; details: pooled human plasma
[2] = chemical recovery by SPE of plasma after PDMS sampling; higher = better extraction; details: pooled human plasma, extraction method: HLB SPE of plasma after PES
[3] = extraction method: PES+SPE (3 d PDMS equilibration then HLB SPE)
[4] = extraction method: SPE only (HLB 96-well)
[5] = extraction method: SPE only (HLB 96-well), PES comparison experiment
[6] = extraction method: solvent precipitation (ACN + hexane)
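Throughout, for chemical recovery by SPE of plasma after PDMS sampling: over 400 spiked chemicals quantified by LC-HRMS or GC-HRMS via internal standard calibration, recovery relative to spike mix added to unspiked plasma extract to correct matrix effects.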

SMILES	chemical recovery [1, 3] [%]	chemical recovery [1, 4] [%]	chemical recovery [1, 5] [%]	chemical recovery [1, 6] [%]	chemical recovery by SPE of plasma ([2]; equilibration time (d): 1) [%]	chemical recovery by SPE of plasma ([2]; equilibration time (d): 3) [%]	chemical recovery by SPE of plasma ([2]; equilibration time (d): 6) [%]
CCC(=C(c1ccc(O)cc1)c1ccc(OCCN(C)C)cc1)c1ccccc1 [4-Hydroxytamoxifen]	11.4 ± 2.5	46.8 ± 8.9	42.6 ± 12	62.1 ± 1.3	13.5 ± 3.3	7.29 ± 0.7	3.71 ± 1.9
O=[N+]([O-])c1ccc(O)c([N+](=O)[O-])c1 [2,4-Dinitrophenol]	52.7 ± 7.5	48.7 ± 6.6	59.8 ± 4.8	79.6 ± 6.8	49.4 ± 8.9	52 ± 3	50.9 ± 4.5
NC(=O)c1c(Cl)c(Cl)cc(C(=O)O)c1Cl	25.4 ± 4.9	30.6 ± 4.5	52.8 ± 4.5	65.4 ± 4.9		49.6 ± 1.4	45.4 ± 6.4
COc1ccc2c(c1)c(CC(=O)O)c(C)n2C(=O)c1ccc(Cl)cc1 [Indometacin]	33.6 ± 5.2	33.3 ± 1.8	31 ± 6			41.1 ± 4.4	35.8 ± 3.6
C[C@H]1C[C@@H]2[C@H]([C@@H](O)C[C@@]3(C)[C@H]2CC[C@]3(O)C(=O)CO)[C@@]2(C)C=CC(=O)C=C12 [6alpha Methylprednisolone]			53.6 ± 7.5		59.2 ± 5.8	57.1 ± 4.7	51.1 ± 6.5
COc1ccc2cc(C(C)C(=O)O)ccc2c1 (stereo not drawn) [Naproxen]	66 ± 2.3	63.8 ± 1.9	73.3 ± 9.3	70.2 ± 4.7		36.6 ± 5.5	36.5 ± 9.1
CCCCn1cc[n+](C)c1 [1-Butyl-3-methyl-imidazolium]		3.53 ± 1.7	3.93 ± 4.5		2.28 ± 2	3.98 ± 3.6	4.03 ± 4.2
O=C(O)C(F)(F)C(F)(F)C(F)(F)C(F)(F)C(F)(F)C(F)(F)C(F)(F)C(F)(F)C(F)(F)F [Perfluorodecanoic acid]		20.4 ± 10			25.3 ± 4.6	24.1 ± 4.5	
CCc1cccc(C)c1N(C(=O)CS(=O)(=O)O)C(C)COC (stereo not drawn) [Metolachlor ESA]	0.65 ± 0.11	33.2 ± 2.9	46.9 ± 4	69.1 ± 3.4	38.9 ± 5.3	42.9 ± 5.7	39.7 ± 6.8
Oc1ccc(Cl)cc1 [4-Chlorophenol]	33.9 ± 11	35.2 ± 7.2	60.1 ± 5.1	98 ± 9.7	60 ± 12	66.4 ± 6.9	59.4 ± 4.3
CC[C@H]1OC(=O)[C@H](C)[C@@H](O[C@H]2C[C@@](C)(OC)[C@@H](O)[C@H](C)O2)[C@H](C)[C@@H](O[C@@H]2O[C@H](C)C[C@H](N(C)C)[C@H]2O)[C@](C)(O)C[C@@H](C)C(=O)[C@H](C)[C@@H](O)[C@]1(C)O [Erythromycin]	4.25 ± 0.61	10.9 ± 8.2	3.18 ± 1.2	66 ± 3.4		11.9 ± 6.8	6.49 ± 3.8
Cc1cccc(Nc2ccncc2S(=O)(=O)NC(=O)NC(C)C)c1 [Torasemide]	38.9 ± 4.2	43.8 ± 3.6	49.1 ± 3.4	73.1 ± 4.1	50.8 ± 5.4	54 ± 2.9	50.9 ± 2.3
COc1ccc(Cl)cc1C(=O)NCCc1ccc(S(=O)(=O)NC(=O)NC2CCCCC2)cc1 [Glibenclamide]			42.1 ± 7	74.9 ± 2.6		43.4 ± 2.1	38 ± 3.8
C[C@@H]1C[C@H]2[C@@H]3C[C@H](F)C4=CC(=O)C=C[C@]4(C)[C@@]3(F)[C@@H](O)C[C@]2(C)[C@@]1(O)C(=O)CO [Flumethasone]			47.9 ± 6.4		46.8 ± 5.2	51.4 ± 1.9	44.3 ± 2.9
COc1cc(O)c(C(=O)c2ccccc2)cc1S(=O)(=O)O [Benzophenone-4]	45.5 ± 3.2	43.3 ± 3.8	44.4 ± 4.8	72.2 ± 2.3	41 ± 11	48.7 ± 3.4	43.3 ± 4.4
CC(CCc1ccccc1)NCC(O)c1ccc(O)c(C(N)=O)c1 (stereo not drawn) [Labetalol]	47.4 ± 3.7	55.6 ± 8.6	51.3 ± 4.4	70.5 ± 3.8	46.4 ± 3.9	50.6 ± 3.4	44.8 ± 2.3
c1ccc2sc(SNC3CCCCC3)nc2c1 [N-Cyclohexyl-2-benzothiazole-sulfenamide]			44.1 ± 3.7		42.3 ± 7.4	43.6 ± 3.3	42.3 ± 4.2
CC(=O)Nc1ccc(S(=O)(=O)Nc2cc(C)on2)cc1 [Acetyl-sulfamethoxazole]	42.7 ± 3.9	37.2 ± 3.4	51.5 ± 4.3	72 ± 3.1	51.7 ± 7.1	51.4 ± 3.5	49.3 ± 6.2
c1ccc2c(c1)ccc1ccccc12 [Phenanthrene]		8.44 ± 0.76	20.8 ± 2.2		2.82 ± 2.2	2.33 ± 0.82	3.01 ± 1.1
